From ChEMBL document CHEMBL2331510, “Antimycobacterial activity evaluation, time-kill kinetic and 3D-QSAR study of C-(3-aminomethyl-cyclohexyl)-methylamine derivatives” (Bioorg Med Chem Lett, 2013)
≈ marks a conversion by molar mass, not a printed value. Calls of active or inactive are those of the source. No cut-off for these calls is given here.

Legend:
[1] = test system: Mycobacterium tuberculosis; assay: Antitubercular activity against Mycobacterium tuberculosis H37Rv after 5 days by fluorescence assay; format: functional; conditions: 120 h
[2] = test system: Mycobacterium tuberculosis; assay: Antitubercular activity against Mycobacterium tuberculosis H37Rv at 20 uM after 5 days by fluorescence assay; format: functional, organism-based
[3] = test system: Mycobacterium tuberculosis; assay: Bactericidal activity against Mycobacterium tuberculosis H37Rv assessed as reduction in CFU over 4 days by serial dilution-based time kill assay relative to control; format: functional
[4] = test system: Mycobacterium tuberculosis; assay: Bactericidal activity against Mycobacterium tuberculosis H37Rv assessed as reduction in CFU at 10 times MIC after 4 days by serial dilution-based time kill assay relative to control; format: functional, organism-based
[5] = test system: Mycobacterium tuberculosis; assay: Bactericidal activity against Mycobacterium tuberculosis H37Rv assessed as reduction in CFU at 10 times MIC by serial dilution-based time kill assay relative to control; format: functional, organism-based; conditions: TDE = time-dependent effect
[6] = test system: Mycobacterium tuberculosis; assay: Bactericidal activity against Mycobacterium tuberculosis H37Rv assessed as log reduction in CFU at 10 times MIC over 2 days by serial dilution-based time kill assay relative to control; format: functional
[7] = Cytotoxicity against human RBC up to 500 ug/ml; format: cell-based; conditions: erythrocyte

Compound | MIC [1] [µM] | inhibition [2] | other results
CCCCCCc1ccc(CNCC2CCCC(CNCc3ccc(CCCCCC)cc3)C2)cc1 (centres undefined) | 5.6 (≈ 2.75 µg/mL) |  | 
Clc1cccc(CNCC2CCCC(CNCc3cccc(Cl)c3)C2)c1 (centres undefined) | > 20 |  | 
Cc1cc(C)cc(CNCC2CCCC(CNCc3cc(C)cc(C)c3)C2)c1 (centres undefined) | 17.5 (≈ 6.63 µg/mL) |  | 
O=[N+]([O-])c1cccc(CNCC2CCCC(CNCc3cccc([N+](=O)[O-])c3)C2)c1 (centres undefined) |  | inactive | 
CCCc1ccc(CNCC2CCCC(CNCc3ccc(CCC)cc3)C2)cc1 (centres undefined) | 4.2 (≈ 1.71 µg/mL) |  | 
CC(C)(C)c1ccc(CNCC2CCCC(CNCc3ccc(C(C)(C)C)cc3)C2)cc1.Cl.Cl (centres undefined) | 1.1 |  | Activity [3]: Dose-dependent effect; MBC ([3]; 96 h): 4.5 µM; Activity [4]: Active; Activity [5]: tde; FC [6]: 5; Activity [7]: Non-toxic
Clc1ccc(CNCC2CCCC(CNCc3ccc(Cl)cc3Cl)C2)c(Cl)c1 (centres undefined) | 20 (≈ 9.21 µg/mL) |  | 
c1cc(N2CCCC2)ccc1CNCC1CCCC(CNCc2ccc(N3CCCC3)cc2)C1 (centres undefined) | 9.5 (≈ 4.38 µg/mL) |  | 
Clc1ccccc1CNCC1CCCC(CNCc2ccccc2Cl)C1 (centres undefined) |  | inactive | 
CC(C)c1ccc(CNCC2CCCC(CNCc3ccc(C(C)C)cc3)C2)cc1 (centres undefined) | 4.4 (≈ 1.79 µg/mL) |  | 
Cc1ccc(CNCC2CCCC(CNCc3ccc(C)cc3C)C2)c(C)c1 (centres undefined) | > 20 |  | 
CCCCCCCc1ccc(CNCC2CCCC(CNCc3ccc(CCCCCCC)cc3)C2)cc1 (centres undefined) | 3.1 (≈ 1.61 µg/mL) |  | 
Clc1cccc(Cl)c1CNCC1CCCC(CNCc2c(Cl)cccc2Cl)C1 (centres undefined) |  | inactive | 
Fc1cc(F)cc(CNCC2CCCC(CNCc3cc(F)cc(F)c3)C2)c1 (centres undefined) |  | inactive | 
Brc1cccc(CNCC2CCCC(CNCc3cccc(Br)c3)C2)c1 (centres undefined) | 12.7 (≈ 6.1 µg/mL) |  | 
CCCCCc1ccccc1CNCC1CCCC(CNCc2ccccc2CCCCC)C1 (centres undefined) | 8.7 (≈ 4.03 µg/mL) |  | 
FC(F)(F)c1ccc(CNCC2CCCC(CNCc3ccc(C(F)(F)F)cc3)C2)cc1 (centres undefined) | 12.5 (≈ 5.73 µg/mL) |  | 
c1ccc(N2CCN(c3ccc(CNCC4CCCC(CNCc5ccc(N6CCN(c7ccccc7)CC6)cc5)C4)cc3)CC2)cc1 (centres undefined) | 4.4 (≈ 2.83 µg/mL) |  | 
CCCCc1ccc(CNCC2CCCC(CNCc3ccc(CCCC)cc3)C2)cc1.Cl.Cl (centres undefined) | 2.4 |  | Activity [4]: Active; FC [6]: 5; Activity [7]: Non-toxic
Cc1ccccc1CNCC1CCCC(CNCc2ccccc2C)C1 (centres undefined) |  | inactive | 
CN1CCN(c2ccc(CNCC3CCCC(CNCc4ccc(N5CCN(C)CC5)cc4)C3)cc2)CC1 (centres undefined) |  | inactive | 
CCCCCCCCc1ccc(CNCC2CCCC(CNCc3ccc(CCCCCCCC)cc3)C2)cc1 (centres undefined) | 3.2 (≈ 1.75 µg/mL) |  | 
Brc1ccccc1CNCC1CCCC(CNCc2ccccc2Br)C1 (centres undefined) | > 20 |  | 

Compound | MIC [1] [µM] | inhibition [2] | other results
Cc1ccc(C)c(CNCC2CCCC(CNCc3cc(C)ccc3C)C2)c1 (centres undefined) | > 20 |  | 
Clc1ccc(CNCC2CCCC(CNCc3ccc(Cl)cc3)C2)cc1 (centres undefined) | 17.5 (≈ 6.85 µg/mL) |  | 
O=[N+]([O-])c1ccccc1CNCC1CCCC(CNCc2ccccc2[N+](=O)[O-])C1 (centres undefined) |  | inactive | 
c1ccc(CNCC2CCCC(CNCc3ccccc3)C2)cc1 (centres undefined) |  | inactive | 
Cc1ccc(CNCC2CCCC(CNCc3ccc(C)cc3)C2)cc1 (centres undefined) | > 20 |  | 
Cc1ccc(CNCC2CCCC(CNCc3ccc(C)c(C)c3)C2)cc1C (centres undefined) | > 20 |  | 
CCCCCCc1ccccc1CNCC1CCCC(CNCc2ccccc2CCCCCC)C1 (centres undefined) | 8.8 (≈ 4.32 µg/mL) |  | 
Fc1cccc(CNCC2CCCC(CNCc3cccc(F)c3)C2)c1 (centres undefined) |  | inactive | 
Fc1ccccc1CNCC1CCCC(CNCc2ccccc2F)C1 (centres undefined) |  | inactive | 
Brc1ccc(CNCC2CCCC(CNCc3ccc(Br)cc3)C2)cc1 (centres undefined) | 12.2 (≈ 5.86 µg/mL) |  | 
COc1ccc(CNCC2CCCC(CNCc3ccc(OC)cc3)C2)cc1 (centres undefined) |  | inactive | 
CCCCCc1ccc(CNCC2CCCC(CNCc3ccc(CCCCC)cc3)C2)cc1 (centres undefined) | 6.7 (≈ 3.1 µg/mL) |  | 
Cc1cccc(CNCC2CCCC(CNCc3cccc(C)c3)C2)c1 (centres undefined) | > 20 |  | 
c1cc(N2CCCCC2)ccc1CNCC1CCCC(CNCc2ccc(N3CCCCC3)cc2)C1 (centres undefined) | 13.8 (≈ 6.74 µg/mL) |  | 
FC(F)(F)c1ccccc1CNCC1CCCC(CNCc2ccccc2C(F)(F)F)C1 (centres undefined) |  | inactive | 
Fc1ccc(CNCC2CCCC(CNCc3ccc(F)cc3)C2)cc1 (centres undefined) |  | inactive | 
CC[C@@H](CO)NCCN[C@@H](CC)CO [ETHAMBUTOL] | 2 (≈ 0.409 µg/mL) |  | 
O=[N+]([O-])c1ccc(CNCC2CCCC(CNCc3ccc([N+](=O)[O-])cc3)C2)cc1 (centres undefined) |  | inactive | 
CCCCCCCCc1ccccc1CNCC1CCCC(CNCc2ccccc2CCCCCCCC)C1 (centres undefined) | 16.1 (≈ 8.81 µg/mL) |  | 
Fc1cccc(F)c1CNCC1CCCC(CNCc2c(F)cccc2F)C1 (centres undefined) |  | inactive | 
CCCCCCCc1ccccc1CNCC1CCCC(CNCc2ccccc2CCCCCCC)C1 (centres undefined) | 20 (≈ 10.4 µg/mL) |  | 
CCc1ccc(CNCC2CCCC(CNCc3ccc(CC)cc3)C2)cc1 (centres undefined) | 15.7 (≈ 5.94 µg/mL) |  | 
